≈ marks a conversion by molar mass, not a printed value.
How the values were obtained:
[1] = target: Serine/threonine-protein kinase pim-2 (Homo sapiens, UniProt Q9P1W9); test: Inhibition of PIM2 (unknown origin)
KG-1 [2] = test: Cytotoxicity against human KG-1 cells assessed as reduction in cell viability; type: functional, cell-based
[3] = Inhibition of PIM in human KG-1 cells assessed as reduction in PS6 level; type: cell-based
[4] = Permeability in human Caco2/TC7 cells at 5 uM; type: ADME, cell-based; details: Caco-2, read-out: permeability
KG-1 [5] = test: Antitumor activity against human KG-1 tumor bearing mouse assessed as reduction BAD phosphorylation at 25 mg/kg, po measured after 24 hrs; type: functional; details: KG-1, po
[6] = Toxicity in mouse xenografted with human KG-1 cells assessed as reduction in body weight at 50 to 150 mg/kg, po administered bid for 3 weeks; type: organism-based; parameters: scale not given: the % may be the effect or the level left; details: in vivo, 504 h, dose 50-150 mg/kg
KG-1 [7] = test: Antitumor against human KG-1 cells xenografted in mouse assessed as tumor growth inhibition at 150 mg/kg, po administered BID for 3 weeks; type: functional; details: KG-1, po, 504 h, read-out: TGI
[8] = Cmax in rat at 3 mg/kg, iv; type: ADME, organism-based; parameters: route intravenous, dose 3 mg/kg; details: in vivo
[9] = Free plasma concentration in human KG-1 tumor bearing mouse at 25 mg/kg, po measured after 24 hrs; type: ADME, organism-based; details: in vivo
KG-1 [10] = test: Antitumor against human KG-1 cells xenografted in mouse assessed as tumor volume at 150 mg/kg, po administered BID for 3 weeks relative to control; type: functional
KG-1 [11] = test: Antitumor activity against human KG-1 tumor bearing mouse assessed as reduction BAD phosphorylation at 25 mg/kg, po measured after 8 hrs; type: functional; details: KG-1, po
[12] = target: Voltage-gated inwardly rectifying potassium channel KCNH2 (Homo sapiens, UniProt Q12809); test: Inhibition of human ERG by patch clamp assay
Chain of Voltage-gated inwardly rectifying potassium channel KCNH2 (Q12809 whole entry): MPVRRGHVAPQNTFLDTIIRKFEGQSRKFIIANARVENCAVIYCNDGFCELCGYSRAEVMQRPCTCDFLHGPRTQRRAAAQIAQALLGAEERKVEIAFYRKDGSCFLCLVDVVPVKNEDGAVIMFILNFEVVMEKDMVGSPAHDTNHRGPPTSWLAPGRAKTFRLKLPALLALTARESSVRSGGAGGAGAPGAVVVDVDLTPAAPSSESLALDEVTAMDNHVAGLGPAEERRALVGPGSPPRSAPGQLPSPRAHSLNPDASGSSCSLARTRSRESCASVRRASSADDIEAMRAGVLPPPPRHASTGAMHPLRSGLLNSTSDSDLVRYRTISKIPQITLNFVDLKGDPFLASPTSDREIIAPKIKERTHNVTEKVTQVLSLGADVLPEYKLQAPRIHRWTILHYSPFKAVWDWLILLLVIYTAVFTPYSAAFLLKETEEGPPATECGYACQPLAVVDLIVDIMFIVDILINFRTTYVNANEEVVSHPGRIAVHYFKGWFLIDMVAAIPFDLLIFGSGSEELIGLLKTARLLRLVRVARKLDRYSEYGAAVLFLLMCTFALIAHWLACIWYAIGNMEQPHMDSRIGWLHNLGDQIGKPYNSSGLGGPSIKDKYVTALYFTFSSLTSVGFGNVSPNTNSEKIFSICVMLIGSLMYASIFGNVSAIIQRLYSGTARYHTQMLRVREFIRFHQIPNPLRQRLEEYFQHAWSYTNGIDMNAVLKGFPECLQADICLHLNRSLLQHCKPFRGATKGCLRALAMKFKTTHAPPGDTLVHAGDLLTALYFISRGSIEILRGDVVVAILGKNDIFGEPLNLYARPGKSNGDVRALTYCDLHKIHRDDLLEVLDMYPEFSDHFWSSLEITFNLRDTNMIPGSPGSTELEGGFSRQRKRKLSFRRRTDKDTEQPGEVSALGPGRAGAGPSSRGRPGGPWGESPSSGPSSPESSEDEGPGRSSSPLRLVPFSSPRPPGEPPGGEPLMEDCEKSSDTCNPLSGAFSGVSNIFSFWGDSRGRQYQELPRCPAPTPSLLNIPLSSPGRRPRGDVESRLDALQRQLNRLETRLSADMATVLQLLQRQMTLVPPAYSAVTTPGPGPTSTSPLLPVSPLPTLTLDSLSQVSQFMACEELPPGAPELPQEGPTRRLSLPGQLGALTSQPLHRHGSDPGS

[13] = Unbound fraction in human KG-1 tumor bearing mouse plasma at 25 mg/kg, po; type: ADME, organism-based
[14] = Free tumor concentration in human KG-1 tumor bearing mouse at 25 mg/kg, po measured after 24 hrs; type: ADME, organism-based, Neoplasm; details: in vivo
[15] = Free plasma concentration in human KG-1 tumor bearing mouse at 25 mg/kg, po measured after 8 hrs; type: ADME, organism-based; details: in vivo
[16] = Volume of distribution at steady state in rat at 3 mg/kg, iv; type: ADME, organism-based; details: in vivo, read-out: Vdss
KG-1 [17] = test: Antitumor against human KG-1 cells xenografted in mouse assessed as tumor volume at 50 mg/kg, po administered BID for 3 weeks relative to control; type: functional
[18] = Half life in rat at 3 mg/kg, iv; type: ADME, organism-based; details: in vivo
[19] = Thermodynamic solubility in pH 7.4 buffer; type: physicochemical; details: read-out: Therm_solubility
[20] = Free tumor concentration in human KG-1 tumor bearing mouse at 25 mg/kg, po measured after 8 hrs; type: ADME, organism-based, Neoplasm; details: in vivo
[21] = Oral bioavailability in rat at 10 mg/kg; type: ADME, organism-based; details: in vivo
KG-1 [22] = test: Antitumor against human KG-1 cells xenografted in mouse assessed as tumor volume at 100 mg/kg, po administered BID for 3 weeks relative to control; type: functional
[23] = Clearance in rat at 3 mg/kg, iv; type: ADME, organism-based; details: in vivo

Chain of Serine/threonine-protein kinase pim-2 (Q9P1W9 whole entry): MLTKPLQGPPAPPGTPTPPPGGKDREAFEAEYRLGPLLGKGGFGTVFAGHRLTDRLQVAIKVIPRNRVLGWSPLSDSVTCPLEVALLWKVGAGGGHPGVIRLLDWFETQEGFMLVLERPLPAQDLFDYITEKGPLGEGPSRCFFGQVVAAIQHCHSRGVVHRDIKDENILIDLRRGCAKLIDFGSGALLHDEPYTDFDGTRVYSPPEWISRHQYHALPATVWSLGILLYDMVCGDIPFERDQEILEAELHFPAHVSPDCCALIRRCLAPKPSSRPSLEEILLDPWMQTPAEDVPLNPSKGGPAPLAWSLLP

Structure (SMILES)	IC50 [1]	EC50 [3]	Papp at 5 µM [4]	EC50 (KG-1 [2])	further results
Cc1cn([C@H](C)[C@@]2(F)CCNC2)c2nc(C(N)=O)cc(Cl)c12 (stereo in doubt)	1780 nM	–	–	7230 nM	–
Cc1cn([C@@H](C)[C@]2(F)CCNC2)c2nc(C(N)=O)cc(Cl)c12 (stereo in doubt)	6 nM	71 nM	2.3 ×10⁻⁶ cm/s	61 nM	inhibition in vivo at 25 mg/kg (KG-1 [5]): 55%; Activity [6]: > 15%; inhibition in vivo at 150 mg/kg (KG-1 [7]): 87%; Cmax [8]: 174 ng/mL; Cp(f) [9]: 54 nM; T/C (KG-1 [10]): 13.1%; inhibition in vivo at 25 mg/kg (KG-1 [11]): 65%; IC50 [12]: 22000 nM; fraction unbound [13]: 0.055; Drug uptake(free) [14]: 120 nM; Cp(f) [15]: 240 nM; Vd [16]: 9.9 L/kg; T/C (KG-1 [17]): 56.1%; half-life [18]: 2.7 h; solubility thermodynamic [19]: 6.8 mM (≈ 2210 µg/mL); Drug uptake(free) [20]: 720 nM; bioavailability [21]: 59%; T/C (KG-1 [22]): 50.7%; clearance [23]: 75 mL/min/kg
Cc1cn([C@@H](C)[C@@]2(F)CCNC2)c2nc(C(N)=O)cc(Cl)c12 (stereo in doubt)	160 nM	876 nM	–	808 nM	–
Cc1cn([C@H](C)[C@]2(F)CCNC2)c2nc(C(N)=O)cc(Cl)c12 (stereo in doubt)	515 nM	2030 nM	1.8 ×10⁻⁶ cm/s	9070 nM	IC50 [12]: 30000 nM

Second part, led by results:

IC50 [1]	EC50 [3]	Papp at 5 µM [4]	Structure (SMILES)	EC50 (KG-1 [2])	further results
–	52 nM	7.1 ×10⁻⁶ cm/s	Cc1cn([C@H](C)[C@H]2CCNC[C@@H]2F)c2nc(C(N)=O)cc(Cl)c12 (racemic)	51 nM	–
–	115 nM	1.7 ×10⁻⁶ cm/s	Cc1cn([C@@H](C)[C@@H]2CCNC[C@@H]2F)c2nc(C(N)=O)cc(Cl)c12 (racemic)	195 nM	–
–	24 nM	12 ×10⁻⁶ cm/s	Cc1cn([C@H](C)[C@@H]2CCNC[C@H]2F)c2nc(C(N)=O)cc(Cl)c12 (racemic)	20 nM	–
–	6 nM	1.5 ×10⁻⁶ cm/s	Cc1cn([C@@H](C)[C@H]2CCNC[C@H]2F)c2nc(C(N)=O)cc(Cl)c12 (racemic)	17 nM	–

— ChEMBL document CHEMBL4699590, “Discovery of SARxxxx92, a pan-PIM kinase inhibitor, efficacious in a KG1 tumor model” (Bioorg Med Chem Lett, 2020)
